According to the supplement of paper PMC11061612:

What was measured:
Carboplatin = compound: C1CC(C1)(C(=O)[O-])C(=O)[O-].N.N.[Pt+2] [Carboplatin]; details: max 10 µM
Outline: (§1)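 Cancer cell lines in 1536-well plates (7.5 μl DMEM/F12 or RPMI, 10% FBS) were held 24 hours at 37°C and 5% CO2 and then dosed for 72 hours at a final DMSO of typically 0.2%. Viability was taken from CellTiter-Glo 2.0 luminescence, scaled between blank-well and DMSO-well means. Curves were fitted as two-parameter logistic models with a non-linear mixed effects model, from which the single-agent IC50 was taken.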

AZD5363 = compound: C1CN(CCC1(C(=O)N[C@@H](CCO)C2=CC=C(C=C2)Cl)N)C3=NC=NC4=C3C=CN4 [AZD5363]; details: max 10 µM
Outline: as §1

AZD1775 = compound: C=CCn1c(=O)c2cnc(Nc3ccc(N4CCN(C)CC4)cc3)nc2n1-c1cccc(C(C)(C)O)n1 [AZD1775]; details: max 3 µM
Outline: as §1

Trametinib = compound: CC(=O)Nc1cccc(-n2c(=O)n(C3CC3)c(=O)c3c(Nc4ccc(I)cc4F)n(C)c(=O)c(C)c32)c1 [Trametinib]; details: max 1 µM
Outline: as §1

Paclitaxel = compound: CC(=O)O[C@H]1C(=O)[C@@]2(C)[C@H]([C@H](OC(=O)c3ccccc3)[C@]3(O)C[C@H](OC(=O)[C@H](O)[C@@H](NC(=O)c4ccccc4)c4ccccc4)C(C)=C1C3(C)C)[C@]1(OC(C)=O)CO[C@@H]1C[C@@H]2O [Paclitaxel]; details: max 3 µM
Outline: as §1

Palbociclib = compound: CC(=O)c1c(C)c2cnc(Nc3ccc(N4CCNCC4)cn3)nc2n(C2CCCC2)c1=O [Palbociclib]; details: max 10 µM
Outline: as §1

AZD1390 = compound: CC(C)n1c(=O)n(C)c2cnc3cc(F)c(-c4ccc(OCCCN5CCCCC5)nc4)cc3c21 [AZD1390]; details: max 0.3 µM
Outline: as §1

Venetoclax = compound: CC1(C)CCC(CN2CCN(c3ccc(C(=O)NS(=O)(=O)c4ccc(NCC5CCOCC5)c([N+](=O)[O-])c4)c(Oc4cnc5[nH]ccc5c4)c3)CC2)=C(c2ccc(Cl)cc2)C1 [Venetoclax]; details: max 1 µM
Outline: as §1

Dasatinib = compound: CC1=C(C(=CC=C1)Cl)NC(=O)C2=CN=C(S2)NC3=CC(=NC(=N3)C)N4CCN(CC4)CCO [Dasatinib]; details: max 2 µM
Outline: as §1

SG3199 = compound: CC1=CN2[C@@H](C1)C=NC3=CC(=C(C=C3C2=O)OC)OCCCCCOC4=C(C=C5C(=C4)N=C[C@@H]6CC(=CN6C5=O)C)OC [SG3199]; details: max 0.001 µM
Outline: as §1

AZD2811 = compound: CCN(CCO)CCCOc1ccc2c(Nc3cc(CC(=O)Nc4cccc(F)c4)[nH]n3)ncnc2c1 [AZD2811]; details: max 1 µM
Outline: as §1

SN-38 = compound: CCc1c2c(nc3ccc(O)cc13)-c1cc3c(c(=O)n1C2)COC(=O)[C@]3(O)CC [SN-38]; details: max 0.3 µM
Outline: as §1

AZD0156 = compound: CN(C)CCCOc1ccc(-c2ccc3ncc4c(c3c2)n(C2CCOCC2)c(=O)n4C)cn1 [AZD0156]; details: max 3 µM
Outline: as §1

AZD4320 = compound: CN(CC[C@H](CSC1=CC=CC=C1)NC2=C(C=C(C=C2)S(=O)(=O)NC(=O)C3=CC=C(C=C3)N4CCC(CC4)[C@H](C5=CC=CC=C5C6=CC=C(C=C6)Cl)O)S(=O)(=O)C(F)(F)F)CCO [AZD4320]; details: max 1 µM
Outline: as §1

Alisertib = compound: COc1cc(Nc2ncc3c(n2)-c2ccc(Cl)cc2C(c2c(F)cccc2OC)=NC3)ccc1C(=O)O [Alisertib]; details: max 10 µM
Outline: as §1

Etoposide = compound: COc1cc([C@@H]2c3cc4c(cc3[C@@H](O[C@@H]3O[C@@H]5CO[C@@H](C)O[C@H]5[C@H](O)[C@H]3O)[C@H]3COC(=O)[C@H]23)OCO4)cc(OC)c1O [Etoposide]; details: max 10 µM
Outline: as §1

Gefitinib = compound: COc1cc2ncnc(Nc3ccc(F)c(Cl)c3)c2cc1OCCCN1CCOCC1 [Gefitinib]; details: max 10 µM
Outline: as §1

Prexasertib = compound: COc1cccc(OCCCN)c1-c1cc(Nc2cnc(C#N)cn2)n[nH]1 [Prexasertib]; details: max 1 µM
Outline: as §1

Doxorubicin = compound: COc1cccc2c1C(=O)c1c(O)c3c(c(O)c1C2=O)C[C@@](O)(C(=O)CO)C[C@@H]3O[C@H]1C[C@H](N)[C@H](O)[C@H](C)O1 [Doxorubicin]; details: max 1 µM
Outline: as §1

AZD5153 = compound: COc1nnc2ccc(N3CCC(c4ccc(OCCN5CCN(C)C(=O)[C@H]5C)cc4)CC3)nn12 [AZD5153]; details: max 1 µM
Outline: as §1

Lapatinib = compound: CS(=O)(=O)CCNCc1ccc(-c2ccc3ncnc(Nc4ccc(OCc5cccc(F)c5)c(Cl)c4)c3c2)o1 [Lapatinib]; details: max 10 µM
Outline: as §1

AZD8186 = compound: C[C@@H](Nc1cc(F)cc(F)c1)c1cc(C(=O)N(C)C)cc2c(=O)cc(N3CCOCC3)oc12 [AZD8186]; details: max 10 µM
Outline: as §1

Crizotinib = compound: C[C@@H](Oc1cc(-c2cnn(C3CCNCC3)c2)cnc1N)c1c(Cl)ccc(F)c1Cl [Crizotinib]; details: max 10 µM
Outline: as §1

Savolitinib = compound: C[C@@H](c1ccc2nccn2c1)n1nnc2ncc(-c3cnn(C)c3)nc21 [Savolitinib]; details: max 1 µM
Outline: as §1

AZD6738 = compound: C[C@@H]1COCCN1C2=NC(=NC(=C2)C3(CC3)[S@](=N)(=O)C)C4=C5C=CNC5=NC=C4 [AZD6738]; details: max 10 µM
Outline: as §1

AZD5991 = compound: Cc1c2c(nn1C)CSCc1cc(n(C)n1)CSc1cc(c3ccccc3c1)OCCCc1c(C(=O)O)n(C)c3c-2c(Cl)ccc13 [AZD5991]; details: max 1 µM
Outline: as §1

AZD7648 = compound: Cc1cc2ncnn2cc1Nc1ncc2c(n1)n(C1CCOCC1)c(=O)n2C [AZD7648]; details: max 10 µM
Outline: as §1

Taselisib = compound: Cc1nc(-c2cn3c(n2)-c2ccc(-c4cnn(C(C)(C)C(N)=O)c4)cc2OCC3)n(C(C)C)n1 [Taselisib]; details: max 10 µM
Outline: as §1

Selumetinib = compound: Cn1cnc2c(F)c(Nc3ccc(Br)cc3Cl)c(C(=O)NOCCO)cc21 [Selumetinib]; details: max 10 µM
Outline: as §1

SRA737 = compound: N#Cc1cnc(Nc2cc(NC[C@H]3CNCCO3)c(C(F)(F)F)cn2)cn1 [SRA737]; details: max 10 µM
Outline: as §1

MK-2206 = compound: NC1(c2ccc(-c3nc4ccn5c(=O)[nH]nc5c4cc3-c3ccccc3)cc2)CCC1 [MK-2206]; details: max 10 µM
Outline: as §1

Gemcitabine = compound: Nc1ccn([C@@H]2O[C@H](CO)[C@@H](O)C2(F)F)c(=O)n1 [Gemcitabine]; details: max 0.3 µM
Outline: as §1

[1] = compound: O=C(Nc1ccc2[nH]nc(-c3ccncc3)c2c1)[C@@H]1CCN(CC(=O)N2CCN(c3ccc(-c4ncccn4)cc3)CC2)C1; details: max 5 µM
Outline: as §1

Olaparib = compound: O=C(c1cc(Cc2n[nH]c(=O)c3ccccc23)ccc1F)N1CCN(C(=O)C2CC2)CC1 [Olaparib]; details: max 10 µM
Outline: as §1

5-Fluorouracil = compound: O=c1[nH]cc(F)c(=O)[nH]1 [5-Fluorouracil]; details: max 20 µM
Outline: as §1

Cell Line	IC50, cell viability 72 h (Carboplatin)	IC50, cell viability 72 h (AZD5363)	IC50, cell viability 72 h (AZD1775)	IC50, cell viability 72 h (Trametinib)	IC50, cell viability 72 h (Paclitaxel)	IC50, cell viability 72 h (Palbociclib)	IC50, cell viability 72 h (AZD1390)	IC50, cell viability 72 h (Venetoclax)	IC50, cell viability 72 h (Dasatinib)	IC50, cell viability 72 h (SG3199)	IC50, cell viability 72 h (AZD2811)	IC50, cell viability 72 h (SN-38)	IC50, cell viability 72 h (AZD0156)	IC50, cell viability 72 h (AZD4320)	IC50, cell viability 72 h (Alisertib)	IC50, cell viability 72 h (Etoposide)	IC50, cell viability 72 h (Gefitinib)	IC50, cell viability 72 h (Prexasertib)	IC50, cell viability 72 h (Doxorubicin)	IC50, cell viability 72 h (AZD5153)	IC50, cell viability 72 h (Lapatinib)	IC50, cell viability 72 h (AZD8186)	IC50, cell viability 72 h (Crizotinib)	IC50, cell viability 72 h (Savolitinib)	IC50, cell viability 72 h (AZD6738)	IC50, cell viability 72 h (AZD5991)	IC50, cell viability 72 h (AZD7648)	IC50, cell viability 72 h (Taselisib)	IC50, cell viability 72 h (Selumetinib)	IC50, cell viability 72 h (SRA737)	IC50, cell viability 72 h (MK-2206)	IC50, cell viability 72 h (Gemcitabine)	IC50, cell viability 72 h [1]	IC50, cell viability 72 h (Olaparib)	IC50, cell viability 72 h (5-Fluorouracil)
RCM-1 (Colorectal Carcinoma)	> 10 µM	> 10 µM	1.79 µM	0.0318 µM	> 3 µM	> 10 µM	> 0.3 µM	> 1 µM	> 2 µM	> 0.001 µM	> 1 µM	0.0354 µM	> 3 µM	> 1 µM	> 10 µM	> 10 µM	> 10 µM	0.0232 µM	> 1 µM	0.506 µM	> 10 µM	> 10 µM	> 10 µM	> 1 µM	2.61 µM	> 1 µM	> 10 µM	9.94 µM	2.57 µM	> 10 µM	> 10 µM	> 0.3 µM	2.15 µM	> 10 µM	> 20 µM
REH (B-Lymphoblastic Leukemia)	> 10 µM	> 10 µM	0.727 µM	> 1 µM	0.00544 µM	6.85 µM	> 0.3 µM	0.211 µM	> 2 µM	> 0.001 µM	0.218 µM	0.00421 µM	> 3 µM	0.0564 µM	1.62 µM	0.834 µM	> 10 µM	0.0248 µM	0.0949 µM	0.834 µM	> 10 µM	9.64 µM	4.21 µM	> 1 µM	5.79 µM	0.723 µM	> 10 µM	3.31 µM	> 10 µM	> 10 µM	4.58 µM	0.0156 µM	> 5 µM	> 10 µM	> 20 µM
RKN (Other Solid Carcinomas)	> 10 µM	> 10 µM	2.3 µM	> 1 µM	0.0408 µM	> 10 µM	> 0.3 µM	> 1 µM	1.74 µM	> 0.001 µM	> 1 µM	> 0.3 µM	> 3 µM	> 1 µM	> 10 µM	> 10 µM	> 10 µM	0.267 µM	> 1 µM	> 1 µM	> 10 µM	> 10 µM	> 10 µM	> 1 µM	> 10 µM	> 1 µM	> 10 µM	> 10 µM	> 10 µM	> 10 µM	> 10 µM	> 0.3 µM	> 5 µM	> 10 µM	> 20 µM
SF539 (Glioblastoma)	> 10 µM	3.27 µM	0.185 µM	> 1 µM	0.00753 µM	> 10 µM	> 0.3 µM	> 1 µM	1.63 µM	> 0.001 µM	> 1 µM	0.0189 µM	> 3 µM	> 1 µM	4.93 µM	2.14 µM	> 10 µM	0.00882 µM	0.351 µM	0.37 µM	> 10 µM	> 10 µM	9.82 µM	> 1 µM	2.05 µM	> 1 µM	> 10 µM	3.75 µM	> 10 µM	1.93 µM	9.37 µM	0.0239 µM	3.22 µM	> 10 µM	14.5 µM
SHP-77 (Small Cell Lung Carcinoma)	> 10 µM	> 10 µM	1.8 µM	> 1 µM	0.0763 µM	> 10 µM	> 0.3 µM	> 1 µM	> 2 µM	> 0.001 µM	> 1 µM	> 0.3 µM	> 3 µM	> 1 µM	> 10 µM	> 10 µM	> 10 µM	0.102 µM	> 1 µM	> 1 µM	> 10 µM	> 10 µM	> 10 µM	> 1 µM	> 10 µM	> 1 µM	> 10 µM	> 10 µM	> 10 µM	> 10 µM	> 10 µM	0.169 µM	> 5 µM	> 10 µM	14.8 µM
